BindingDB's records for doi:10.1021/acschembio.7b00707 (Istituto Italiano di Tecnologia, 2017)

Molecular target: Breast cancer type 2 susceptibility protein/DNA repair protein RAD51 homolog 1 (Homo sapiens, UniProt P51587+Q06609)
Experiment: ELISA assay
Excerpt: This assay is an efficient tool for directly measuring inhibition of the BRC4−Rad51 interaction, at a molecular level, which is described by Rajendra et al.

Chain of Breast cancer type 2 susceptibility protein/DNA repair protein RAD51 homolog 1 (P51587 whole entry V2466A): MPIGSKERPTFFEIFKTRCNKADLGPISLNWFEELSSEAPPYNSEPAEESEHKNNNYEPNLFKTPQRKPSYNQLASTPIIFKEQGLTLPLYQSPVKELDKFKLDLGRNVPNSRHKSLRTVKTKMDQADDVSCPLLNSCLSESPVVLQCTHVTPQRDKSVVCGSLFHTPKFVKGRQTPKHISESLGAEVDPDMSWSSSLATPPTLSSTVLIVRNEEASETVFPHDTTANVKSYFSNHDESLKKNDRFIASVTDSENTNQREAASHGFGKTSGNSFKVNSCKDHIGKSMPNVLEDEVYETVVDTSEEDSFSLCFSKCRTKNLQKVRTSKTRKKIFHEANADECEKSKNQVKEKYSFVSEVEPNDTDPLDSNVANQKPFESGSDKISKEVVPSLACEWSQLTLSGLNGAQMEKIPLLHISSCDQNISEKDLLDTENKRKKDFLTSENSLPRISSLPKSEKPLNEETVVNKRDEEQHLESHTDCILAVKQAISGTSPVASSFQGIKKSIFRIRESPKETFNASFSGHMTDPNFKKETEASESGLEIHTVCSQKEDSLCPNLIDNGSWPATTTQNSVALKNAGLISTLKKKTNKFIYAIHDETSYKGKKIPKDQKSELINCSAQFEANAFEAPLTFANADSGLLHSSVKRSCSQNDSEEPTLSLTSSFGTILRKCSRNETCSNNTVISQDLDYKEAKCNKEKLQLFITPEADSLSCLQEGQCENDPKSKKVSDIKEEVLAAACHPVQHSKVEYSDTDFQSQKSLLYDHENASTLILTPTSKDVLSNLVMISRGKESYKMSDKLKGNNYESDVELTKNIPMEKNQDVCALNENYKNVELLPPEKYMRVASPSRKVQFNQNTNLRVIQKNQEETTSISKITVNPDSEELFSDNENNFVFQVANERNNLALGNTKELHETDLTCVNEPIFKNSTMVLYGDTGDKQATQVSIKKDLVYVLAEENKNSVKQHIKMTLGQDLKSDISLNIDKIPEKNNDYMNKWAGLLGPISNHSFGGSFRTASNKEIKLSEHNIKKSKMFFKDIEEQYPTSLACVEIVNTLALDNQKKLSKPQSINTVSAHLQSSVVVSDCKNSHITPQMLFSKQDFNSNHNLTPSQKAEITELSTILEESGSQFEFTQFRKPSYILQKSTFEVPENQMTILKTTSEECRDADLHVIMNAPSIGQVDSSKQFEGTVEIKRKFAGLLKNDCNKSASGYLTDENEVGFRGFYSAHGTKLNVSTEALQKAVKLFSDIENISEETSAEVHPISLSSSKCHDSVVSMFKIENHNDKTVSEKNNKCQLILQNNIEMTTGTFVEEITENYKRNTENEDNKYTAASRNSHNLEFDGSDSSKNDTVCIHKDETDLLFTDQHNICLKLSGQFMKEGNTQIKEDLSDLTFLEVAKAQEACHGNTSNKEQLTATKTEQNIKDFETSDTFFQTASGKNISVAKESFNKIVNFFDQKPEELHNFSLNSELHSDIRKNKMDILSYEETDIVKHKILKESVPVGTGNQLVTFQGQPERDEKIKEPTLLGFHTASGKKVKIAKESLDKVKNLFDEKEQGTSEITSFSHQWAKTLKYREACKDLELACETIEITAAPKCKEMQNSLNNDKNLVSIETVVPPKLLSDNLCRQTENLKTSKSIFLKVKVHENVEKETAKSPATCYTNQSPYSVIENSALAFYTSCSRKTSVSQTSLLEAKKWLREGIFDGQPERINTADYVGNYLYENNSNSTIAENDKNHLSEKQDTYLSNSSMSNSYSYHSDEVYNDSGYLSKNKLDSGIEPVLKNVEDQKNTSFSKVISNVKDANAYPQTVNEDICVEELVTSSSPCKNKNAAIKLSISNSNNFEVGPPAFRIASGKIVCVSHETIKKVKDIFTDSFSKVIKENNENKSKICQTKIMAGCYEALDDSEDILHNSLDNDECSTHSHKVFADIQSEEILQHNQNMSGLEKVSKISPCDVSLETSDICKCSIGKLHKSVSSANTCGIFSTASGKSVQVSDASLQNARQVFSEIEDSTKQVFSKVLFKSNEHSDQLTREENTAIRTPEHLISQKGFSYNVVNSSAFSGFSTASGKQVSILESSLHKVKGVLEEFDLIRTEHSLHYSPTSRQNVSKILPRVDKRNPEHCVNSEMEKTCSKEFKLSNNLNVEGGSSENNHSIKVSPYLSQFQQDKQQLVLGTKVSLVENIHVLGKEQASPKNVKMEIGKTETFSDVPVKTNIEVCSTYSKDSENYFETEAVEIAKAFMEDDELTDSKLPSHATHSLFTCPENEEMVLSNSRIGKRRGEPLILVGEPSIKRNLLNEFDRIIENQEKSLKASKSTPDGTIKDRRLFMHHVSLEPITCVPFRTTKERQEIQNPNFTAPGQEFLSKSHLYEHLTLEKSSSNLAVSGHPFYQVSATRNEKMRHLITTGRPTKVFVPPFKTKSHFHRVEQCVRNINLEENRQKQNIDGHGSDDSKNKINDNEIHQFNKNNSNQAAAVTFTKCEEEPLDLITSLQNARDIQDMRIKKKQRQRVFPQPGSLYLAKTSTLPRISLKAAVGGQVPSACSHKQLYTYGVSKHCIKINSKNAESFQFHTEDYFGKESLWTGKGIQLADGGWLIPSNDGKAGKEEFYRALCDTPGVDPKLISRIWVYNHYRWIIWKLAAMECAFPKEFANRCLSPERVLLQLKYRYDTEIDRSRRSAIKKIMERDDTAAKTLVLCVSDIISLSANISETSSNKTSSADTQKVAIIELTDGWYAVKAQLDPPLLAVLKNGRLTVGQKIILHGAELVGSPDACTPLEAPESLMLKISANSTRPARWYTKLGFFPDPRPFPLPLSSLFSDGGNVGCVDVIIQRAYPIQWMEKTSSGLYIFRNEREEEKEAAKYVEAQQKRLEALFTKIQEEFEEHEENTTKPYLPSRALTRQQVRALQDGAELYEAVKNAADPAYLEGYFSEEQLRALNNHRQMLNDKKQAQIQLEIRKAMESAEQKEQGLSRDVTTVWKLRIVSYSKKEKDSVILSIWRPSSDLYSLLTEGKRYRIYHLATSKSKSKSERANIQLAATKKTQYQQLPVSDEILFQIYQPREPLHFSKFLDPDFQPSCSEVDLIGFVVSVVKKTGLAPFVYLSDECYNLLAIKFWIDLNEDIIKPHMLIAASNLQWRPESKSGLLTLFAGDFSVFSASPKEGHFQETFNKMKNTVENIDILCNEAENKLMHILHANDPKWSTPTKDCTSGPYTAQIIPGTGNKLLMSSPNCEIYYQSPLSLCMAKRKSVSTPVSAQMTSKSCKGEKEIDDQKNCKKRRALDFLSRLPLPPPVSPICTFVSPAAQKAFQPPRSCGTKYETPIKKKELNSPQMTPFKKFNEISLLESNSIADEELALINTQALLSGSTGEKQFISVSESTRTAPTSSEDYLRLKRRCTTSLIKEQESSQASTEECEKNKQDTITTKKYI
Chain of Breast cancer type 2 susceptibility protein/DNA repair protein RAD51 homolog 1 (Q06609 whole entry): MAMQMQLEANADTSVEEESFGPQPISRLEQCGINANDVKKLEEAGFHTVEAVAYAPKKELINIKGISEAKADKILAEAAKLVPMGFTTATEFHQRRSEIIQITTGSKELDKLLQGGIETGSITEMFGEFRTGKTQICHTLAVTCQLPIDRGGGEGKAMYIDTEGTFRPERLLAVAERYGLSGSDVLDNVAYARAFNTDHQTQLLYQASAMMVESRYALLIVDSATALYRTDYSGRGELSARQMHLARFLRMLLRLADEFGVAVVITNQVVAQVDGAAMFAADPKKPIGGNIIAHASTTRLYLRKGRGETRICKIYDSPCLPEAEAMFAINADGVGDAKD

Row | EC50 [µM] | Compound
1 | 53 | O=C(CSc1nnc(Cn2c(=O)sc3ccccc32)n1CCc1ccccc1)NC1CCCC1 [F0665-0303]
2 | 25 | O=C(CSc1nnc(Cn2c(=O)sc3ccccc32)n1CCCc1ccccc1)NC1CCCC1 [N-cyclopentyl-2-((5-((2-oxobenzo[d]thiazol-3(2H)-yl)methyl)-4-phenpropyl-4H-1,2,4-triazol-3-yl)thio)acetamide]
